Assay results from patent publication US20120053119A1, “THERAPEUTIC METHOD FOR INCREASING PANCREATIC BETA CELL MASS” (priority 2009, published 2012).

Tests used:
Type in all cases: cell-based
INS-1 cells = test: ATP-lite cell viability assay, serum deprivation, SDF-1 with AMD3100; conditions: serum-free medium, SDF-1 2 nM, day 6
Experimental: ATP lite cell viability assay: INS-1 cells were plated in 96 well plates. SDF-1 (2 nM) and AMD3100 were added at day 0, 2, 4 and cell viability was measured at day 6 using relative light units (RLU) as compared to control. N=6.
INS-1 cells were plated in 96 well plates in control medium (no serum) or a medium containing 2% serum. SDF-1 (2 nM) and SDF-1 (2 nM) along with various concentrations of AMD3100 (2 uM, 0.4 uM, 80 nM, 16 nM) were added to different cell groups incubated in serum-free medium at days 0, 2, 4, and cell viability was measured at day 6 using relative light units (RLU) as compared to control.

PDX-1 = PDX-1 mRNA by RT-PCR in alphaTC-1 cells; conditions: SDF-1 10 nM, by 12 hours
Experimental: FIG. 22. SDF-1 induces the expression of PDX-1 in alphaTC-1 cells. PDX-1 mRNA is induced by 12 hours after the addition of SDF-1 (10 nM), determined by RT-PCR. M=marker lane.

mouse islets = test: GLP-1 production in mouse islets ex vivo, radioimmunoassay; conditions: batches of 50 islets, medium 1 and 4 hours, lysate 4 hr; SDF-1 10 nM
Experimental: FIG. 37. Cytokines and SDF-1 stimulate GLP-1 production in mouse islets ex vivo. Batches of 50 islets were treated with control, cytokine mixture, or 10 nM SDF-1. Medium was collected in 1 hr and 4 hr. Islet lysate was collected in 4 hr. GLP-1. Immunoreactive protein was measured by radioimmunoassay.
Batches of 50 islets were treated with a control vehicle, a cytokine mixture, or 10 nM SDF-1. Medium was collected from each batch at 1 hour and 4 hours, and islet lysate was collected in 4 hr. the concentration of GLP-1 contained in each sample collected was measured by radioimmunoassay of the immunoreactive protein.

[1] = tested on: GLP-1 receptor (GLP-1R) mRNA; test: GLP-1R mRNA by RT-PCR in alphaTC-1 cells; conditions: SDF-1 10 nM, by 4 hrs
Experimental: FIG. 21. SDF-1 induces the expression of the GLP-1 receptor (GLP-1R) mRNA in alphaTC-1 cells. […] RNA levels were determined by RT-PCR.

[2] = tested on: prohormone convertase PC1/3; test: PC1/3 expression by QPCR in alphaTC-1 cells; conditions: by one hour after addition of SDF-1, QPCR
Excerpt: FIG. 19. […] Determined by QPCR. High priority experiments planned are to examine PC1/3 protein expression in isolated mouse islets using Western immunoblot, immunocytochemistry, and bioassays for active PC 1/3.

INS-1 or MIN6 cells = test: Thapsigargin-induced apoptosis, caspase-3 activity assay; conditions: SDF-1 10 nM with thapsigargin 1 microM, 16 h
Experimental: FIG. 6. Inhibition of apoptosis by SDF-1 in INS-1 and MIN-6 cells is reversed by knock-down of betacatenin. A. Western blot analysis of extracts from MIN6 cells that were mock treated, thapsigargin-treated (1 μM) and/or siRNA transfected (0.25 mg/ml), by using anti-serum against cleaved caspase-3 (upper panel), anti-serum against cleaved PARP (middle panel) and actin antibody (lower panel) as a loading control. B. Caspase-3 activity (fluorescence/mg proteinx105) of INS-1 or MIN6 cells mock treated, thapsigargin-treated (1 μM) and/or siRNA transfected (0.25 mg/ml). Results are presented as mean±SD for n=3 independent experiments, All values are relative to the first (leftmost) bar. […] Quantification of apoptotic cells is expressed as percent apoptotic cells relative to the total cells counted (lower left panel). […]
Thapsigargin-induced apoptosis in INS-1 or MIN6 cells For western immuoblot assay (Cell Signaling), MIN6 cells were seeded into 6 well plates then treated with 1 microM thapsigargin or DMSO control for 16 h and apoptotic activity was measured by Western immunoblotting using antisera specific for cleaved (active) caspase-3 (Cell signaling #9661) and cleaved (active) PARP (Cell signaling #9548). For caspase-3 assay, INS-1 cells or MIN-6 cells in 24-well plates were treated with 1 microM thapsigargin or DMSO for 16 hand caspase-3 activity was determined (Molecular Probes). […]

Substance: SDF-1: small, secreted 70 amino acid peptide chemokine, SEQ ID NO: 1, ligand of CXCR4
- protection of cell viability in serum deprivation (INS-1 cells): protects INS-1 cells from dying
- PDX-1 mRNA expression (PDX-1): induced
- production of GLP-1 by mouse islets (mouse islets): induces the production of GLP-1
- GLP-1R mRNA expression [1]: induces the expression of GLP-1R
- PC1/3 expression [2]: induces prohormone convertase PC1/3 expression
- effect on thapsigargin-induced caspase-3 activity (proapoptotic effect) (INS-1 or MIN6 cells): attenuated
